The structures appear in SMILES notation.

Data set [1] is described as follows: Oral pharmacokinetics, all species examined. The class given is in vivo. The following applies: orally administered; mice, rats, dogs, and monkeys. How it is done:
Peak plasma concentrations were achieved between 1 and 3 hours after a dose of 5 mg/kg. […] Oral availability was greatest in rodent, and was reduced in dogs and monkeys (59 and 34% respectively).

Another data set in a line: in vivo. The following applies: female, athymic nude, mouse, in vivo, po. The source says:
(§1) The models evaluated included MV522, A549 and H460 NSCLC. […] The experiments used a tumor growth delay (TGD) endpoint based on median time to endpoint, i.e., tumor volume of 1000-2000 mm^3, and treatments were compared to untreated controls using the Logrank test for statistical significance.

For the next data set, the system named is MV522 NSCLC. Kind of data set: in vivo. The following applies: MV522.
Text: as §1

In a further data set the test system is A549 NSCLC. Kind of data set: A549 NSCLC xenograft, tumor growth delay. Type of data set: in vivo, female athymic nude mice.
Text: as §1

A further data set deals with H460 NSCLC. Kind of data set: H460 NSCLC xenograft, tumor growth delay. Type of data set: in vivo, female athymic nude mice.
Text: as §1

For data set [2] the following is noted: cited from earlier work.
The conditions of data set [3]: patients taking erlotinib; cited from earlier work.

With `CCOc1ccc(-c2cc(C)cn2-c2ccc(S(N)(=O)=O)cc2)cc1`, in data set [1], the “Absorption after oral administration” value is given as “rapidly absorbed”. In “in vivo”, the MTD was 30 mg/kg. Also, the “Tumor growth delay (TGD)” value with MV522 NSCLC (10 mg/kg oral daily) worked out at 19.1 days; in the data set on MV522 NSCLC (30 mg/kg (MTD) oral daily), 32.1 days; in the data set with A549 NSCLC (at its MTD, oral daily) it was 24.3 days; in the data set with H460 NSCLC (COX-2 inhibitor monotherapy) it was 4.0 days. Besides, the “Tumor growth delay (TGD), percent” value came to 57% in the data set on MV522 NSCLC (10 mg/kg oral daily); 96% in the data set on MV522 NSCLC (30 mg/kg (MTD) oral daily); 62% in the data set with A549 NSCLC (at its MTD, oral daily); 30% in the data set with H460 NSCLC (COX-2 inhibitor monotherapy).
Turning to `CC(=O)O[C@@]12CO[C@@H]1C[C@H](O)[C@@]1(C)C(=O)[C@H](O)C3=C(C)[C@@H](OC(=O)[C@H](O)[C@@H](NC(=O)OC(C)(C)C)c4ccccc4)C[C@@](O)([C@@H](OC(=O)c4ccccc4)[C@H]21)C3(C)C` [Docetaxel], in the data set with H460 NSCLC (25 mg/kg iv weekly x3), the “Tumor growth delay (TGD)” value came out at 10.8 days and the “Tumor growth delay (TGD), percent” value is on record as 80%. Moreover, the Solubility in water result in data set [2] is “practically insoluble”.
For `Cc1ccc(-c2cc(C(F)(F)F)nn2-c2ccc(S(N)(=O)=O)cc2)cc1` [celecoxib, reference compound], the “Tumor growth delay (TGD)” value with A549 NSCLC (100 mg/kg) came out at 15.4 days; in the data set on H460 NSCLC (COX-2 inhibitor monotherapy), 3.0 days. Moreover, the “Tumor growth delay (TGD), percent” value turned out to be 39% in the data set with A549 NSCLC (100 mg/kg) and 22% with H460 NSCLC (COX-2 inhibitor monotherapy).
Regarding `C#Cc1cccc(Nc2ncnc3cc(OCCOC)c(OCCOC)cc23)c1` [erlotinib, N-(3-ethynylphenyl)-6,7-bis(2-methoxyethoxy)quinazolin-4-amine], the “Patients with common side effects (rash, diarrhea, poor appetite, fatigue, shortness of breath, cough, nausea and vomiting)” value in data set [3] was “greater than 30 % of patients”.

The values are drawn from patent publication US20110301209A1, “METHODS AND COMPOSITIONS FOR THE TREATMENT OF CANCER, TUMORS, AND TUMOR-RELATED DISORDERS” (TRAGARA PHARMACEUTICALS, INC., priority 2007, published 2011).
